Columns and labels:
[1] = 101 kPa, Liquid; for speed of sound: Pulse-echo method; for mass density: Vibrating tube method
[2] = molar heat capacity at constant pressure; conditions: 101 kPa, Liquid
[3] = xn = mol fraction of the nth substance listed; conditions: 101 kPa, Liquid, x2 = 0; for mass density: Vibrating tube method; for speed of sound: Pulse-echo method
[4] = molar heat capacity at constant pressure; xn = mol fraction of the nth substance listed; conditions: 101 kPa, Liquid, x2 = 0

BrCCCCCBr [1,5-dibromopentane]
Conditions | mass density [kg/m3] | molar heat capacity at constant pressure [J/K/mol] | speed of sound [m/s]
[1], 292.38 K | – | – | 1149.5
[1], 292.52 K | 1699.54 | – | –
[1], 298.05 K | 1691.87 | – | –
[1], 298.37 K | – | – | 1133
[1], 303.06 K | 1684.89 | – | –
[1], 303.39 K | – | – | 1119.3
[1], 308.08 K | 1678.03 | – | –
[1], 308.38 K | – | – | 1105.8
[1], 314.36 K | – | – | 1089.7
[1], 314.66 K | 1668.75 | – | –
[2], 293.15 K | – | 219.76 | –
[2], 294.15 K | – | 219.98 | –
[2], 295.15 K | – | 220.19 | –
[2], 296.15 K | – | 220.41 | –
[2], 297.15 K | – | 220.66 | –
[2], 298.15 K | – | 220.84 | –
[2], 299.15 K | – | 221.1 | –
[2], 300.15 K | – | 221.28 | –
[2], 301.15 K | – | 221.49 | –
[2], 302.15 K | – | 221.73 | –
[2], 303.15 K | – | 221.95 | –
[2], 304.15 K | – | 222.17 | –
[2], 305.15 K | – | 222.41 | –
[2], 306.15 K | – | 222.63 | –
[2], 307.15 K | – | 222.85 | –
[2], 308.15 K | – | 223.09 | –
[2], 309.15 K | – | 223.31 | –
[2], 310.15 K | – | 223.56 | –
[2], 311.15 K | – | 223.78 | –
[2], 312.15 K | – | 224.03 | –
[2], 313.15 K | – | 224.26 | –

CCCCCCC [heptane]
Conditions | mass density [kg/m3] | molar heat capacity at constant pressure [J/K/mol] | speed of sound [m/s]
[1], 292.7 K | 684.18 | – | –
[1], 292.84 K | – | – | 1153.7
[1], 297.98 K | 679.88 | – | –
[1], 298.84 K | – | – | 1127.7
[1], 302.94 K | 675.72 | – | –
[1], 303.8 K | – | – | 1106.4
[1], 308.06 K | 671.47 | – | –
[1], 308.78 K | – | – | 1085.1
[1], 314.1 K | 666.39 | – | –
[1], 314.87 K | – | – | 1059.1
[2], 293.15 K | – | 222.87 | –
[2], 294.15 K | – | 223.23 | –
[2], 295.15 K | – | 223.6 | –
[2], 296.15 K | – | 223.97 | –
[2], 297.15 K | – | 224.35 | –
[2], 298.15 K | – | 224.72 | –
[2], 299.15 K | – | 225.1 | –
[2], 300.15 K | – | 225.47 | –
[2], 301.15 K | – | 225.87 | –
[2], 302.15 K | – | 226.22 | –
[2], 303.15 K | – | 226.61 | –
[2], 304.15 K | – | 227 | –
[2], 305.15 K | – | 227.4 | –
[2], 306.15 K | – | 227.75 | –
[2], 307.15 K | – | 228.14 | –
[2], 308.15 K | – | 228.54 | –
[2], 309.15 K | – | 228.95 | –
[2], 310.15 K | – | 229.3 | –
[2], 311.15 K | – | 229.71 | –
[2], 312.15 K | – | 230.11 | –
[2], 313.15 K | – | 230.51 | –

CCCCCCC [heptane] + BrCCCCCBr
Conditions | mass density [kg/m3] | molar heat capacity at constant pressure [J/K/mol] | speed of sound [m/s]
[3], 292.7 K | 684.18 | – | –
[3], 292.84 K | – | – | 1153.7
[3], 297.98 K | 679.88 | – | –
[3], 298.84 K | – | – | 1127.7
[3], 302.94 K | 675.72 | – | –
[3], 303.8 K | – | – | 1106.4
[3], 308.06 K | 671.47 | – | –
[3], 308.78 K | – | – | 1085.1
[3], 314.1 K | 666.39 | – | –
[3], 314.87 K | – | – | 1059.1
[4], 293.15 K | – | 222.87 | –
[4], 294.15 K | – | 223.23 | –
[4], 295.15 K | – | 223.6 | –
[4], 296.15 K | – | 223.97 | –
[4], 297.15 K | – | 224.35 | –
[4], 298.15 K | – | 224.72 | –
[4], 299.15 K | – | 225.1 | –
[4], 300.15 K | – | 225.47 | –
[4], 301.15 K | – | 225.87 | –
[4], 302.15 K | – | 226.22 | –
[4], 303.15 K | – | 226.61 | –
[4], 304.15 K | – | 227 | –
[4], 305.15 K | – | 227.4 | –
[4], 306.15 K | – | 227.75 | –
[4], 307.15 K | – | 228.14 | –
[4], 308.15 K | – | 228.54 | –
[4], 309.15 K | – | 228.95 | –
[4], 310.15 K | – | 229.3 | –
[4], 311.15 K | – | 229.71 | –
[4], 312.15 K | – | 230.11 | –
[4], 313.15 K | – | 230.51 | –
